In patent US10894798B2, “Substituted dihydropyrrolopyrazole derivative” (UBE INDUSTRIES, LTD., priority 2015, dated 2021):

How the values were obtained:
[1] = target: T1, CDK7 (Homo sapiens, UniProt P50613); test: CDK7 enzyme inhibition test; type: biochemical; conditions: [γ-33P]ATP, MBP substrate, 60 min preincubation at 25°C; Ki=IC50/(1+S/Km); read-out: Ki value of CDK7 inhibitory activity
T1 construct: purchased Carna Biosciences, Inc. 04-108
In short: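 Commercial human CDK7 with myelin basic protein substrate in HEPES pH 7.4 buffer with DTT, Triton X-100, MgCl2; compound preincubated 60 min at 25° C, then reaction run 20 min at 30° C after adding [γ-^33P]ATP (500 μM solution). TCA-precipitated ^33P-MBP counted by scintillation; IC50 converted to Ki via Ki=IC50/(1+S/Km).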

[2] = target: T2, CDK2 (Homo sapiens, UniProt P24941); test: CDK2 enzyme inhibition test; type: biochemical; conditions: [γ-33P]ATP, MBP substrate; Ki=IC50/(1+S/Km); read-out: Ki value of CDK2 inhibitory activity
T2 construct: purchased Invitrogen Corp. PV3267
In short: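 Commercial CDK2 phosphorylated MBP with [γ-33P]ATP (500 μM solution before mixing) in HEPES pH 7.4 buffer with DTT, Triton X-100 and MgCl2 for 20 min at 30 °C. TCA-precipitated 33P-MBP was counted by scintillation to give the IC50. Ki = IC50/(1+S/Km), with S the ATP concentration in the reaction.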

[3] = system: human large intestine cancer cell line (HCT-116); test: Human large intestine cancer (HCT-116) cell growth inhibition test; type: cell-based; conditions: HCT-116, 72 h, culture for 3 days, sulforhodamine B, read-out: GI50 value, HCT-116 cell growth inhibition
In short: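 HCT-116 cells were seeded at 0.5 to 2.0×10^3 cells/well in McCoy's 5A with 10% FBS and dosed with compound at 0.1% final DMSO after overnight culture. Growth was measured by sulforhodamine B absorbance after 3 days. GI50 was calculated from the inhibition rate at each concentration.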

[4] = system: human large intestine cancer cell (HCT 116) tumor; test: Tumor growth inhibition test in HCT 116-subcutaneously transplanted nude mouse; type: in vivo; conditions: dose of 100 mg/kg, repeated oral administration, HCT-116 in female BALB nude mice, control group = 100%, read-out: rate of suppression of tumor volume
Description: A human large intestine cancer cell line (HCT-116) was cultured in a McCoy's 5A medium containing 10% FBS and 1% penicillin/streptomycin/amphotericin B and adjusted to 1.0×10^8 cells/mL with PBS or Hanks solution (HBSS(−)). The prepared cell suspension was subcutaneously injected at 0.1 mL/mouse to the right abdomens of female BALB nude mice (supplied by Charles River Laboratories Japan, Inc.). After rearing for a certain period, the long diameter (mm) and short diameter (mm) of tumor were measured with electronic calipers, and the tumor volume was calculated according to the following expression: Tumor volume (mm^3)=(Long diameter)×(Short diameter)×(Short diameter)×0.5
Individuals whose tumor volume was within the range of 50 to 200 mm^3 were selected and grouped such that the tumor volume was almost equivalent, then a test compound or only a solvent was orally administered in a repeated manner, and the body weights and tumor volume were measured. A test compound was suspended in a 0.5 w/v % aqueous methylcellulose solution (0.5% MC) (manufactured by Wako Pure Chemical Industries, Ltd.) and orally administered at 10 mL/kg in a repeated manner. When the tumor volume of the control group was defined as 100%, the rate of suppression of tumor volume (%) at each dose of the test compound was calculated.

[5] = target: T3, PLK1 (Homo sapiens, UniProt P53350); test: PLK1 enzyme (polo-like kinase) inhibition test; type: biochemical; conditions: [γ-33P]ATP, casein substrate; Ki=IC50/(1+S/Km); read-out: Ki value of PLK1 inhibitory activity
T3 construct: purchased Carna Biosciences, Inc. 05-157
In short: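 Recombinant PLK1 phosphorylates casein with [γ-^33P]ATP in MOPS buffer (pH 7.0) containing DTT and magnesium acetate, 20 min at 30° C. Reaction stopped with TCA; washed precipitate counted by liquid scintillation. IC50 for inhibition of ^33P incorporation into casein, converted to Ki via Ki=IC50/(1+S/Km).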

T3 sequence (P53350 whole entry): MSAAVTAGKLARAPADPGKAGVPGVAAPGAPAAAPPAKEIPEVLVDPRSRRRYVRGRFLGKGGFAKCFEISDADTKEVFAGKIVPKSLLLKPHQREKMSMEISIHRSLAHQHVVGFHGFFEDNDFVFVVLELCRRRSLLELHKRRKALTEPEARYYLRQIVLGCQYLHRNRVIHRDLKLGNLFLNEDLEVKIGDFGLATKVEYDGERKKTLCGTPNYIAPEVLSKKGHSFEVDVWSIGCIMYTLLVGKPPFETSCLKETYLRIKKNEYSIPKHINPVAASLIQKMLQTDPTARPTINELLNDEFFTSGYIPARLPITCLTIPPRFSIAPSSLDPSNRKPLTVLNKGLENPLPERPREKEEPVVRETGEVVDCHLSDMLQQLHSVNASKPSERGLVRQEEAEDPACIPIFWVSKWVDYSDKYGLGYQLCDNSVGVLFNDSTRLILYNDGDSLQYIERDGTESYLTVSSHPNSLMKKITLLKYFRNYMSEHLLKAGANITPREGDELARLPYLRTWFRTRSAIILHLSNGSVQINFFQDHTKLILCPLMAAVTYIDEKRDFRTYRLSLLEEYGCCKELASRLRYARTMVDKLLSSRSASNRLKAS
T1 sequence (P50613 whole entry): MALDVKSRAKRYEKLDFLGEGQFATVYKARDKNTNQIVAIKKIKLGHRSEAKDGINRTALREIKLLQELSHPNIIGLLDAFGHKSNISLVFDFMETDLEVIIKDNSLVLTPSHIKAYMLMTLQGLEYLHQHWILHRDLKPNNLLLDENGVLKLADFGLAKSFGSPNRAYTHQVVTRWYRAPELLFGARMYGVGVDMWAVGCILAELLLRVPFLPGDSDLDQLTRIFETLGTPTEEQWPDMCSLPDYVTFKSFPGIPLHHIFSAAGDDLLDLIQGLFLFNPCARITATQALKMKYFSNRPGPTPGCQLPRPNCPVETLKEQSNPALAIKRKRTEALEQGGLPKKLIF
T1 sequence (P51946 whole entry partner): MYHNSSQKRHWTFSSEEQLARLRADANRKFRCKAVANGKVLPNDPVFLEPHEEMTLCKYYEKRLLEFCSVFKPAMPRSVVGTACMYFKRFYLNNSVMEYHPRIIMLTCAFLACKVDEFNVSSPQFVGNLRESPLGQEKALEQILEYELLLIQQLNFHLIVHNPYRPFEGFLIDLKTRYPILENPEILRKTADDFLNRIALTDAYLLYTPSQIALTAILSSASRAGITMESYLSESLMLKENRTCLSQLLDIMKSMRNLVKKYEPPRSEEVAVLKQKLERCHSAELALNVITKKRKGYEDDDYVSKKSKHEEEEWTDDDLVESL
T1 sequence (P51948 whole entry partner): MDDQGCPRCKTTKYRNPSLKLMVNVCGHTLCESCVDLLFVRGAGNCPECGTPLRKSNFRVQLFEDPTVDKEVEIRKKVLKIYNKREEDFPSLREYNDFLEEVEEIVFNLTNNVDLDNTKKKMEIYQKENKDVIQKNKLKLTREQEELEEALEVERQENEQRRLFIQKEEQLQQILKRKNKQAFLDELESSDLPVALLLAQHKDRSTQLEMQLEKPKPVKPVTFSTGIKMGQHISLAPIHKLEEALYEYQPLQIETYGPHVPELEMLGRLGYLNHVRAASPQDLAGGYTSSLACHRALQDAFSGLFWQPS

Row | Compound | Ki [1] | Ki [2] | GI50 [3] | inhibition in vivo at 100 mg/kg [4] | Ki [5]
1 | CC1(C)c2[nH]nc(NC(=O)C3([Si](C)(C)C)CCC3)c2CN1C(=O)Nc1ccccc1 [IV-1, 6,6-Dimethyl-N-phenyl-3-[1-(trimethylsilyl)cyclobutanecarboxamido]-4,6-dihydropyrrolo[3,4-c]pyrazole-5(1H)-carboxamide] | ≤ 50 nM | ≥ 1000 nM | ≤ 100 nM | ≥ 50% | –
2 | CC1(C)c2[nH]nc(NC(=O)C3([Si](C)(C)C)CCC3)c2CN1C(=O)Nc1c(F)cccc1Br [IV-121, N-(2-Bromo-6-fluorophenyl)-6,6-dimethyl-3-[1-(trimethylsilyl)cyclobutanecarboxamido]-4,6-dihydropyrrolo[3,4-c]pyrazole-5 (1H)-carboxamide] | ≤ 50 nM | – | ≤ 100 nM | ≥ 50% | ≥ 5 µM
3 | Cc1ccc(Cl)c(NC(=O)N2Cc3c(NC(=O)C4([Si](C)(C)C)CCC4)n[nH]c3C2(C)C)c1F [IV-629, N-(6-Chloro-2-fluoro-3-methylphenyl)-6,6-dimethyl-3-[1-(trimethylsilyl)cyclobutanecarboxamido]-4,6-dihydropyrrolo[3,4-c]pyrazole-5(1H)-carboxamide] | ≤ 50 nM | ≥ 1000 nM | ≤ 100 nM | – | ≥ 5 µM
4 | COc1ccc(C)c(F)c1NC(=O)N1Cc2c(NC(=O)C3([Si](C)(C)C)CCC3)n[nH]c2C1(C)C [IV-689, N-(2-Fluoro-6-methoxy-3-methylphenyl)-6,6-dimethyl-3-[1-(trimethylsilyl)cyclobutanecarboxamido]-4,6-dihydropyrrolo[3,4-c]pyrazole-5(1H)-carboxamide] | ≤ 50 nM | ≥ 1000 nM | ≤ 100 nM | – | ≥ 5 µM
5 | Cc1ccc(F)c(NC(=O)N2Cc3c(NC(=O)C4([Si](C)(C)C)CCC4)n[nH]c3C2(C)C)c1Cl [IV-703, N-(2-Chloro-6-fluoro-3-methylphenyl)-6,6-dimethyl-3-[1-(trimethylsilyl)cyclobutanecarboxamido]-4,6-dihydropyrrolo[3,4-c]pyrazole-5(1H)-carboxamide] | ≤ 50 nM | ≥ 1000 nM | ≤ 100 nM | – | ≥ 5 µM
6 | CC1(C)c2[nH]nc(NC(=O)C3([Si](C)(C)C)CCC3)c2CN1C(=O)Nc1c(Cl)cc(F)cc1Cl [IV-709, N-(2,6-Dichloro-4-fluorophenyl)-6,6-dimethyl-3-[1-(trimethylsilyl)cyclobutanecarboxamido]-4,6-dihydropyrrolo[3,4-c]pyrazole-5(1H)-carboxamide] | ≤ 50 nM | ≥ 1000 nM | ≤ 100 nM | – | ≥ 5 µM
7 | Cc1ccc(F)c(Cl)c1NC(=O)N1Cc2c(NC(=O)C3([Si](C)(C)C)CCC3)n[nH]c2C1(C)C [IV-747, N-(2-Chloro-3-fluoro-6-methylphenyl)-6,6-dimethyl-3-[1-(trimethylsilyl)cyclobutanecarboxamido]-4,6-dihydropyrrolo[3,4-c]pyrazole-5(1H)-carboxamide] | ≤ 50 nM | ≥ 1000 nM | ≤ 100 nM | – | ≥ 5 µM
8 | CC1(C)c2[nH]nc(NC(=O)C3([Si](C)(C)C)CCC3)c2CN1C(=O)Nc1c(F)ccc2c1OCC2 [IV-997, N-(6-Fluoro-2,3-dihydrobenzofuran-7-yl)-6,6-dimethyl-3-[1-(trimethylsilyl)cyclobutanecarboxamido]-4,6-dihydropyrrolo[3,4-c]pyrazole-5(1H)-carboxamide] | ≤ 50 nM | ≥ 1000 nM | ≤ 100 nM | – | ≥ 5 µM
9 | CC1(C)c2[nH]nc(NC(=O)C3([Si](C)(C)C)CCC3)c2CN1C(=O)Nc1cccs1 [IV-1043, 6,6-Dimethyl-N-(thiophen-2-yl)-3-[1-(trimethylsilyl)cyclobutanecarboxamido]-4,6-dihydropyrrolo[3,4-c]pyrazole-5(1H)-carboxamide] | ≤ 50 nM | ≥ 1000 nM | ≤ 100 nM | – | ≥ 5 µM
10 | CC1(C)c2[nH]nc(NC(=O)C3([Si](C)(C)C)CCC3)c2CN1C(=O)Nc1ccsc1 [IV-1045, 6,6-Dimethyl-N-(thiophen-3-yl)-3-[1-(trimethylsilyl)cyclobutanecarboxamido]-4,6-dihydropyrrolo[3,4-c]pyrazole-5(1H)-carboxamide] | ≤ 50 nM | ≥ 1000 nM | ≤ 100 nM | – | ≥ 5 µM
11 | Cc1cc2ccc(F)c(NC(=O)N3Cc4c(NC(=O)C5([Si](C)(C)C)CCC5)n[nH]c4C3(C)C)c2o1 [IV-1059, N-(6-Fluoro-2-methylbenzofuran-7-yl)-6,6-dimethyl-3-[1-(trimethylsilyl)cyclobutanecarboxamido]-4,6-dihydropyrrolo[3,4-c]pyrazole-5(1H)-carboxamide] | ≤ 50 nM | ≥ 1000 nM | ≤ 100 nM | – | ≥ 5 µM
12 | Cc1coc2c(NC(=O)N3Cc4c(NC(=O)C5([Si](C)(C)C)CCC5)n[nH]c4C3(C)C)c(F)ccc12 [IV-1061, N-(6-Fluoro-3-methylbenzofuran-7-yl)-6,6-dimethyl-3-[1-(trimethylsilyl)cyclobutanecarboxamido]-4,6-dihydropyrrolo[3,4-c]pyrazole-5(1H)-carboxamide] | ≤ 50 nM | ≥ 1000 nM | ≤ 100 nM | – | ≥ 5 µM
